The values that follow come from patent US20050008607A1, “Composition containing a carbonyl amine” (priority 2003, published 2005).

The test system of assay [1] is human striated muscle cells innervated with explants of spinal cord and of spinal ganglia from rat embryos. The format is cell-based.
Another assay has as its system wrinkles. The settings on record: in vivo; cited from earlier work.

“Also recorded” adds a separate entry of the source.

In the case of `CCCCCC(=O)CCN(CC)CCCc1ccccc1` [Compound (4)], the “contractions of three muscle fibres” value in assay [1] (100 μM, incubated for 60 seconds, contractions counted over 30 seconds) was “blocks the contractions”.

As to `CN1C(=O)CN=C(c2ccccc2)c2cc(Cl)ccc21` [diazepam, reference compound], the muscle fibre contractions result in assay [1] was “inhibited muscle fibre contractions”. Also, the anti-wrinkle activity result in the assay on wrinkles is “demonstrated in vivo”.

botulinum toxin: in assay [1], the “blocking effect on contractions” value was “blocking effect which is much weaker; also recorded: complete”, the “blocking of the contractions” value is reported as “completely blocks the contractions” and the “frequency of the contractions” value is on record as “greatly decreases the frequency of the contractions”.
